PubChem BioAssay (NCI)
Several values for one entry are separate records, joined by “and”; a condition that tells them apart may be missing. Equal values may be shown once.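 How tested: cells in 96-well plates exposed to compound for 48 hours at five concentrations. GI50 marks 50% less growth. TGI: concentration producing complete growth inhibition.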

What was measured:
Test in all cases: inhibition of tumour cell growth, NCI panel, 48 h
786-0 renal = system: 786-0 renal
A498 renal = system: A498 renal
ACHN renal = system: ACHN renal
CCRF-CEM leukemia = system: CCRF-CEM leukemia
COLO 205 colon = system: COLO 205 colon
HCC-2998 colon = system: HCC-2998 colon
HL-60(TB) leukemia = system: HL-60(TB) leukemia
HS 578T breast = system: HS 578T breast
M14 melanoma = system: M14 melanoma
NCI-H23 lung = system: NCI-H23 lung
NCI/ADR-RES ovarian = system: NCI/ADR-RES ovarian
OVCAR-3 ovarian = system: OVCAR-3 ovarian
OVCAR-8 ovarian = system: OVCAR-8 ovarian
SF-295 CNS = system: SF-295 CNS
SK-MEL-5 melanoma = system: SK-MEL-5 melanoma
SN12C renal = system: SN12C renal
SNB-75 CNS = system: SNB-75 CNS
SW-620 colon = system: SW-620 colon
UO-31 renal = system: UO-31 renal

Compound	TGI (786-0 renal)	TGI (A498 renal)	TGI (ACHN renal)	TGI (CCRF-CEM leukemia)	TGI (COLO 205 colon)	TGI (HCC-2998 colon)	TGI (HL-60(TB) leukemia)	TGI (HS 578T breast)	TGI (M14 melanoma)	TGI (NCI-H23 lung)	TGI (NCI/ADR-RES ovarian)	TGI (OVCAR-3 ovarian)	TGI (OVCAR-8 ovarian)	TGI (SF-295 CNS)	TGI (SK-MEL-5 melanoma)	TGI (SN12C renal)	TGI (SNB-75 CNS)	TGI (SW-620 colon)	TGI (UO-31 renal)	GI50 (HS 578T breast)
Cc1cc2ccccc2n2c1nc1ccccc12	> 100 µM	76.7 µM	> 100 µM	> 100 µM	> 100 µM	> 100 µM	> 100 µM	> 100 µM	> 100 µM	> 100 µM	> 100 µM	> 100 µM	> 100 µM	> 100 µM	> 100 µM	> 100 µM	> 100 µM	> 100 µM	> 100 µM	–
O=S1(=O)N=C(SCc2ccccc2)N(c2ccccc2)c2ccncc21	> 100 µM	59.9 µM	> 100 µM	> 100 µM	38.3 µM	> 100 µM	> 100 µM	83.4 µM	> 100 µM	> 100 µM	91.1 µM	> 100 µM	> 100 µM	> 100 µM	> 100 µM	> 100 µM	> 100 µM	> 100 µM	46.8 µM	–
O=C(ON=C1c2ccccc2C(Br)C(Br)c2ccccc21)c1cc([N+](=O)[O-])cc([N+](=O)[O-])c1 (centres undefined)	28.7 µM	33.1 µM	45 µM	3.65 µM	40 µM	68.3 µM	0.422 µM	61.6 µM	33.6 µM	40.1 µM	40.5 µM	35.5 µM	36.5 µM	> 88.9 µM	30.7 µM	35.8 µM	30.2 µM	40.5 µM	–	–
COc1ccc(Nc2nnc(-c3nsc4ccccc34)s2)cc1	9.77 µM	15.8 µM	> 100 µM	> 100 µM	> 100 µM	> 100 µM	> 100 µM	> 100 µM	> 100 µM	> 100 µM	> 100 µM	> 100 µM	> 100 µM	> 100 µM	> 100 µM	> 100 µM	17.3 µM	> 100 µM	35 µM	–
C=C(C)C1=CCC[C@]2(C1)N=C(OC)[C@@H](C(C)C)N=C2OC	> 100 µM	> 100 µM	> 100 µM	> 100 µM	> 100 µM	> 100 µM	87.9 µM	> 100 µM	> 100 µM	> 100 µM	> 100 µM	> 100 µM	> 100 µM	> 100 µM	> 100 µM	> 100 µM	> 100 µM	> 100 µM	> 100 µM	–
O=C(CC(=O)N(C(=O)/C=C\c1ccccc1)c1ccc(Cl)cc1)N1N=C(c2ccccc2)C(N=Nc2cccc([N+](=O)[O-])c2)C1=O (centres undefined)	19.6 µM	35.6 µM	> 100 µM	38.5 µM	14.7 µM	> 100 µM	11.1 µM	75.1 µM	> 100 µM	40.2 µM	22 µM	6.25 µM	> 100 µM	25.2 µM	–	> 100 µM	29.3 µM	57.9 µM	> 100 µM	–
Nc1ncnn2c(C3OC(CO)C(O)C3O)ccc12 (centres undefined)	0.807 µM	0.539 µM	0.645 µM	0.627 µM	0.762 µM	2.71 µM	0.328 µM	0.275 µM	0.413 µM	0.474 µM	2.27 µM	0.52 µM	0.746 µM	3.01 µM	0.527 µM	2.7 µM	0.866 µM	35.1 µM	0.494 µM	–
COc1ccc(-c2c(C#N)c(N)n(C3OCC(OC(C)=O)C(OC(C)=O)C3OC(C)=O)c(=S)c2C#N)cc1 (centres undefined)	> 100 µM	70.1 µM and 84.2 µM	> 100 µM	77.8 µM and 98.3 µM	> 100 µM	60.9 µM and > 100 µM	36.5 µM and 35.9 µM	> 100 µM	> 100 µM	> 100 µM	> 100 µM	> 100 µM	> 100 µM	> 100 µM	> 100 µM	> 100 µM	> 100 µM	> 100 µM	82.6 µM and > 100 µM	33.5 µM and 76.2 µM
CCOc1cc(NC(C)=O)ccc1C(=O)NN1C(=O)C(Cl)C1c1ccccc1 (centres undefined)	28.1 µM	31.7 µM	29.7 µM	38.6 µM	31.8 µM	32.3 µM	36.1 µM	83.1 µM	27 µM	32.3 µM	88.5 µM	34.2 µM	> 100 µM	37.1 µM	23.4 µM	36.5 µM	29.7 µM	59.6 µM	14.9 µM	–
CCOC(=O)P(=O)(O)c1ccc(N(C)Cc2ccccc2)cc1	> 100 µM	> 100 µM	> 100 µM	> 100 µM	> 100 µM	> 100 µM	> 100 µM	> 100 µM	> 100 µM	> 100 µM	> 100 µM	> 100 µM	> 100 µM	> 100 µM	> 100 µM	> 100 µM	> 100 µM	> 100 µM	> 100 µM	–
COC(=O)c1ccc(C)cc1CC1Cc2cc(C)ccc2C1=O (centres undefined)	> 100 µM	> 100 µM	> 100 µM	> 100 µM	> 100 µM	> 100 µM	> 100 µM	> 100 µM	> 100 µM	> 100 µM	> 100 µM	> 100 µM	> 100 µM	> 100 µM	–	> 100 µM	> 100 µM	> 100 µM	> 100 µM	–
COC(=O)C1(C(=O)OC)Cc2ccc(OC)cc2C2=C1C(=O)c1ccccc1C2=O	> 47.9 µM	41.8 µM	15.1 µM	11.8 µM	40.5 µM	37.6 µM	> 21.1 µM	50.4 µM	34.5 µM	21.9 µM	> 28.4 µM	3.69 µM	9.27 µM	8.44 µM	19.3 µM	14.4 µM	35.8 µM	16.9 µM	18.6 µM	–
CC(=O)NC1C(OCc2ccccc2)OC(CO)C(O)C1OC(C)C(=O)NC(C(=O)N[C@@H](CCC(=O)NCCNCCNc1c2ccccc2nc2cccc([N+](=O)[O-])c12)C(N)=O)C(C)C (some centres undefined)	76.9 µM	> 100 µM	73.5 µM	> 100 µM	56.7 µM	50.4 µM	> 100 µM	> 100 µM	32.2 µM	> 100 µM	> 100 µM	> 100 µM	> 100 µM	> 100 µM	–	> 100 µM	> 100 µM	58.5 µM	64.6 µM	–
